Columns and labels:
[1] = test system: waterhemp; experiment: Test C preemergence; type: in vivo, Amaranthus rudis; conditions: preemergence
From the text: (§1) Seeds of plant species selected from blackgrass (Alopecurus myosuroides), Italian ryegrass (Lolium multiflorum), wheat, winter (winter wheat, Triticum aestivum), galium (catchweed bedstraw, Galium aparine), corn (Zea mays), large (Lg) crabgrass (Digitaria sanguinalis), giant foxtail (Setaria faberii), johnsongrass (Sorghum halepense), lambsquarters (Chenopodium album), morningglory (Ipomoea coccinea), yellow nutsedge (Cyperus esculentus), pigweed (Amaranthus retroflexus), ragweed (common ragweed, Ambrosia elatior), soybean (Glycine max), barnyardgrass (Echinochloa crus-galli), oilseed rape (Brassica napus), waterhemp (common waterhemp, Amaranthus rudis), kochia (Kochia scoparia), wild oat (Avena fatua), surinam grass (Brachiaria decumbens), foxtail, green (green foxtail, Setaria viridis), goosegrass (Eleusine indica), bromegrass, downy (downy bromegrass, Bromus tectorum), nightshade (eastern black nightshade, Solanum ptycanthum), cocklebur (common cocklebur, Xanthium strumarium), cupgrass, woolly (woolly cupgrass, Eriochloa villosa), bermudagrass (Cynodon dactylon), sunflower, (common oilseed sunflower, Helianthus annuus), Russian thistle (Salsola kali), and velvetleaf (Abutilon theophrasti) were planted into a blend of loam soil and sand and treated preemergence with test chemicals formulated in a non-phytotoxic solvent mixture which included a surfactant.
(§2) At the same time, plants selected from these crop and weed species and also barley, winter (winter barley, Hordeum vulgare), windgrass (Apera spica-venti), chickweed (common chickweed, Stellaria media), deadnettle (henbit deadnettle, Lamium amplexicaule), and canarygrass (littleseed canarygrass, Phalaris minor) were planted in pots containing Redi-Earth® planting medium (Scotts Company, 14111 Scottslawn Road, Marysville, Ohio 43041) comprising spaghnum peat moss, vermiculite, wetting agent and starter nutrients and treated with postemergence applications of test chemicals formulated in the same manner. Plants ranged in height from 2 to 18 cm (1- to 4-leaf stage) for postemergence treatments. Treated plants and controls were maintained in a greenhouse for 13 to 15 days, after which time all species were compared to controls and visually evaluated. Plant response ratings, summarized in Table C, are based on a scale of 0 to 100 where 0 is no effect and 100 is complete control. A dash (-) response means no test result.

[2] = test system: giant foxtail; experiment: Test A preemergence; type: in vivo, Setaria faberii; conditions: 0 to 100 scale where 0 is no effect and 100 is complete control
Method in brief: (§3)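 Scoring: eye-based comparison with untreated controls, 0 for no effect through 100 for complete control, at about day 10. Treatments: directed soil spray preemergence; foliar spray postemergence on 2–10 cm plants at the one- to two-leaf stage. Medium: loam soil with sand.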

[3] = test system: soybean; experiment: Test C preemergence; type: in vivo, Glycine max; conditions: preemergence
Method in brief: (§4)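 Sown in loam/sand → sprayed pre-emergence; or grown to 1–4 leaves in peat mix → sprayed post-emergence. Same solvent/surfactant formulation both ways. Greenhouse 13–15 d. Score 0–100 visual.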

[4] = test system: ragweed; experiment: Test C preemergence; type: in vivo, Ambrosia elatior; conditions: preemergence
Method in brief: as §4

[5] = test system: barnyardgrass; experiment: Test A preemergence; type: in vivo, Echinochloa crus-galli; conditions: 0 to 100 scale where 0 is no effect and 100 is complete control
Method in brief: as §3

[6] = test system: morningglory; experiment: Test C preemergence; type: in vivo, Ipomoea coccinea; conditions: preemergence
Method in brief: as §4

[7] = test system: barnyardgrass; experiment: Test C preemergence; type: in vivo, Echinochloa crus-galli; conditions: for Barnyardgrass plant response rating: preemergence; for Plant response rating, Barnyardgrass: Preemergence, 31 g ai/ha, scale 0 to 100, 0 no effect, 100 complete control
From the text: as §1, §2

[8] = test system: oilseed rape; experiment: Test C preemergence; type: in vivo, Brassica napus; conditions: preemergence
From the text: as §1, §2

[9] = test system: blackgrass; experiment: Test C preemergence; type: in vivo, Alopecurus myosuroides; conditions: for Blackgrass plant response rating: preemergence; for Plant response rating, Blackgrass: Preemergence, 31 g ai/ha, scale 0 to 100, 0 no effect, 100 complete control
Method in brief: as §4

[10] = test system: corn; experiment: Test C preemergence; type: in vivo, Zea mays; conditions: for Corn plant response rating: preemergence; for Plant response rating, Corn: Preemergence, 31 g ai/ha, scale 0 to 100, 0 no effect, 100 complete control
Method in brief: as §4

[11] = 16 g ai/ha, scale 0 to 100 (0 no effect, 100 complete control)
[12] = 62 g ai/ha, scale 0 (no effect) to 100 (complete control)
[13] = 125 g ai/ha, scale 0 (no effect) to 100 (complete control)
[14] = 31 g ai/ha, visual, approximately 10 days

| SMILES | Waterhemp plant response rating [1, 11] | Waterhemp plant response rating [1, 12] | Waterhemp plant response rating [1, 13] | Plant response rating, Foxtail, Giant ([2]; 125 g ai/ha) | Soybean plant response rating [3, 11] | Soybean plant response rating [3, 12] | Soybean plant response rating [3, 13] | Ragweed plant response rating [4, 11] | Ragweed plant response rating [4, 12] | Ragweed plant response rating [4, 13] | Plant response rating, Barnyardgrass ([5]; 125 g ai/ha) | Morningglory plant response rating [6, 11] | Morningglory plant response rating [6, 12] | Morningglory plant response rating [6, 13] | Barnyardgrass plant response rating [7, 11] | Barnyardgrass plant response rating [7, 12] | Barnyardgrass plant response rating [7, 13] | Plant response rating, Barnyardgrass [7] | Oilseed Rape plant response rating [8, 11] | Oilseed Rape plant response rating [8, 12] | further results |
| --- | --- | --- | --- | --- | --- | --- | --- | --- | --- | --- | --- | --- | --- | --- | --- | --- | --- | --- | --- | --- | --- |
| COc1cnn(-c2c(C#N)cccc2Oc2ncc(Cl)cn2)c1 [Compound 137] | 100 | 95 | 100 | 90 | 10 | 80 | 85 | 45 | 80 | 95 | 20 | 25 | 45 | 90 | 0 | 10 | 40 | 5 | 50 | 85 | Foxtail, Giant plant response rating ([2]; 500 g ai/ha): 100; Barnyardgrass plant response rating ([5]; 500 g ai/ha): 100; Oilseed Rape plant response rating [8, 13]: 95; Blackgrass plant response rating [9, 11]: 0; Blackgrass plant response rating [9, 12]: 5; Blackgrass plant response rating [9, 13]: 10; Plant response rating, Blackgrass [9]: 0; Corn plant response rating [10, 11]: 0; Corn plant response rating [10, 12]: 5; Corn plant response rating [10, 13]: 10; Plant response rating, Corn [10]: 5 |
| N#Cc1cnn(-c2c(CF)cccc2Oc2ncc(F)cn2)c1 [Compound 151] | 95 | 100 | 100 | 100 | 35 | 85 | 95 | 55 | 85 | 100 | 60 | 0 | 10 | 25 | 5 | 70 | 100 | 5 | 95 | 100 | Plant response rating, Foxtail, Giant [2, 14]: 100; Plant response rating, Barnyardgrass [5, 14]: 20; Oilseed Rape plant response rating [8, 13]: 100; Blackgrass plant response rating [9, 11]: 0; Blackgrass plant response rating [9, 12]: 10; Blackgrass plant response rating [9, 13]: 90; Plant response rating, Blackgrass [9]: 0; Corn plant response rating [10, 11]: 0; Corn plant response rating [10, 12]: 15; Corn plant response rating [10, 13]: 70; Plant response rating, Corn [10]: 5 |

From patent US9695155B2, “Herbicidal substituted pyrimidinyloxy benzene compounds” (E. I. DU PONT DE NEMOURS AND COMPANY, priority 2013, dated 2017)
